# Results from patent US9028856B2, “Synergistic pesticide compositions” (priority 2008, dated 2015).
# Like-named read-outs stand apart in the source and are kept apart here.
# Key:
# Format in all cases: in vivo
# [1] = system: Musca domestica, susceptible strain WHO(N); assay: Efficacy of formulations on surfaces (glazed/unglazed tiles), house flies, continuous exposure; settings: for % KD and Mortality 15′ / % KD and Mortality 30′ / % KD and Mortality 1 h / % KD and Mortality 2 h / % KD and Mortality 3 h / % KD and Mortality 4 h / % KD and Mortality 6 h / % KD and Mortality 24 h: Table 114, EC formulation, continuous exposure
# Experimental: A flat fan nozzle (type SS 8003-E) in a spray cabin was moved automatically over a defined area where the solutions were sprayed very evenly onto the surfaces. The formulation was mixed with water to give a concentration which corresponded to the desired quantity of a.i./m^2. A defined quantity of this solution was sprayed onto the area (nominal 350 liter/ha=0.77 ml per surface).
# (§1) All surfaces were provided with talcum-coated glass rings (diameter 9.5 cm, height 5.5 cm) one day later.
# The test insects were anesthetized with CO2, 20 individuals were placed onto the treated surfaces and the glass ring was covered with wire gauze ring.
# Knock down was determined after 15 and 30′, 1, 2, 4 and 6 hours, mortality after 1 day exposure.
# (§2) Each test consisted of at least one replicate and any additional replicates are noted.
# (§3) Test Insects: House flies (Musca domestica) of both sexes, susceptible strain WHO(N) and resistant strain Reichswald
# (§4) Evaluation: Mortality was evaluated cumulatively at different times. […]
# (§5) Test Insects: Culex quinquefasciatus (adults) (3 minutes exposure time according to USDA Petri Dish Method), Musca domestica (adults), susceptible and resistant strain, Blattella germanica (males), Cimex lectularius (adults) (all: continuous exposure time)
# (§6) Application: The EC formulation (diluted with water 1:9) were applied as 0.85 ml solutions onto glazed tiles (15 cm×15 cm)
# (§7) Evaluation: Knock down after 15, and 30 minutes, 1, 2, 3, 4, 6 and 24 hours (mortality)
# (§8) Test Insects: Culex quinquefasciatus (adults, susceptible) (3 minutes exposure time according to USDA Petri Dish Method), Musca domestica (adults, susceptible and resistant), Blattella germanica (males, susceptible) (both: continuous exposure time)
# (§9) Formulations: Insecticide with or without 10% Compound A (as EC), to be diluted with water (1 part formulation+9 parts water)
# Evaluation: Knock down after 3, 9 (mosquitoes only), 15, and 30 minutes, 1, 2, 3, 4 and 24 hours (mortality) […]
# [2] = system: Musca domestica, resistant strain Reichswald; assay: as above; settings: for % KD and Mortality 15′ / % KD and Mortality 30′ / % KD and Mortality 1 h / % KD and Mortality 2 h / % KD and Mortality 3 h / % KD and Mortality 4 h / % KD and Mortality 6 h / % KD and Mortality 24 h: Table 115, EC formulation, continuous exposure
# Experimental: as §1
# (§10) The test insects were anesthetized with CO2, 20 individuals were placed onto the treated surfaces and the glass ring was covered with wire gauze ring. […]
# as §2, §3, §4, §5, §6
# [3] = system: Red Imported Fire ant (RIFA), Solenopsis invicta; assay: Knockdown/mortality of ant workers under continuous exposure on treated glazed tile; settings: glazed tile
# Text: Treatments were allowed to dry overnight. […] Treatments were replicated minimum three times.
# Treatments were allowed to dry overnight. […] Treatments were replicated a minimum of three times.
# [4] = system: susceptible/normal German cockroach (Monheim strain), Blattella germanica; assay: Knockdown/mortality of male cockroaches under continuous exposure on treated glazed tile; settings: glazed tile
# Procedure, shortened: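 Male cockroaches continuously exposed on treated glazed tile, dried overnight before exposure; at least three replicates. Knockdown/mortality scored at intervals from 5 or 10 min, over runs lasting 20 min to 24 h depending on test.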
# [5] = system: Blattella germanica (males, susceptible); assay: Efficacy of EC formulations on glazed/unglazed tiles, continuous exposure; settings: EC formulation
# Experimental: as §1, §10
# Each test consisted of at least one replicate and any additional replicates are noted. […]
# as §8, §9
# Application: 1 ml of the diluted formulations was applied by pipette onto glazed tiles (15×15 cm)
# (§11) Evaluation: Knock down after 3, 9 (mosquitoes only), 15, and 30 minutes, 1, 2, 3, 4 and 24 hours (mortality)
# [6] = system: Cimex lectularius (adults); assay: Efficacy on glazed tiles (acetone solutions or EC formulations), continuous exposure; settings: for mortality at 50 mg/m2: Cimex lectularius, read-out: % KD and Mortality
# Experimental: as §5, §6, §7
# Test Insects: Culex quinquefasciatus (adults) (3 minutes exposure time according to USDA Petri Dish Method), Cimex lectularius (adults), Acheta domesticus (middle nymphs) (both: continuous exposure time)
# Application: The active ingredients were applied as 1 ml acetone solutions onto glazed tiles (15 cm×15 cm)
# as §11
# Test Insects: Culex quinquefasciatus (adults) (3 minutes exposure time according to USDA Petri Dish Method), Cimex lectularius (adults), (continuous exposure time)
# Test Insects: Cimex lectularius, Culex quinquefasciatus, Musca domestica (all adults, susceptible strains)
# Application: The active ingredients were applied as 1 ml acetone solutions onto glazed tiles (15 cm×15 cm), continuous exposure time
# [7] = 0.001% deltamethrin in acetone on glazed tiles, with or without adjuvant
# [8] = Table 52, fipronil/adjuvant in acetone
# [9] = Table 53, fipronil/adjuvant in acetone, Monheim strain
# [10] = 0.1% = 50 mg Bendiocarb/m^2 on glazed tiles
# [11] = 0.1% = 50 mg imidacloprid/m^2 on glazed tiles
# [12] = Table 60, Red Imported Fire ant, continuous exposure
# [13] = Table 61, German cockroach (Monheim), continuous exposure
smiles,measurement,setting,value
CC1(C)[C@H](C(=O)O[C@H](C#N)c2cccc(Oc3ccccc3)c2)[C@@H]1C=C(Br)Br [deltamethrin],% of the flies killed after 15′,"[1]; 0.001% deltamethrin in acetone on glazed tiles, with or without 1% Compound A + 0.5% Compound B",2%
same,% of the flies killed after 30′,[1]; [7],18%
same,% of the flies killed after 1 h,[1]; [7],58%
same,% of the flies killed after 2 h,[1]; [7],80%
same,% of the flies killed after 3 h,[1]; [7],88%
same,% of the flies killed after 24 h,[1]; [7],92%
same,% of the flies killed after 24 h,"[2]; 0.02% deltamethrin in acetone on glazed tiles, with or without 1% Compound A + 0.5% Compound B",7%
CC1(C)[C@H](C(=O)O[C@H](C#N)c2cccc(Oc3ccccc3)c2)[C@@H]1C=C(Br)Br [deltamethrin (1%)],Average % Mortality after 10 min,"[3]; 10 min, Table 31, aqueous deltamethrin/adjuvant",37%
same,Average % Mortality after 20 min,"[3]; 20 min, Table 31, aqueous deltamethrin/adjuvant",100%
same,Average % Mortality after 40 min,"[3]; 40 min, Table 31, aqueous deltamethrin/adjuvant",100%
same,Average % Mortality after 60 min,"[3]; Table 31, aqueous deltamethrin/adjuvant",100%
same,Average % Mortality after 4 min,"[4]; 4 min, Table 32, aqueous deltamethrin/adjuvant, Monheim strain",27%
same,Average % Mortality after 8 min,"[4]; 8 min, Table 32, aqueous deltamethrin/adjuvant, Monheim strain",100%
same,Average % Mortality after 12 min,"[4]; 12 min, Table 32, aqueous deltamethrin/adjuvant, Monheim strain",100%
same,Average % Mortality after 20 min,"[4]; 20 min, Table 32, aqueous deltamethrin/adjuvant, Monheim strain",100%
N#Cc1nn(-c2c(Cl)cc(C(F)(F)F)cc2Cl)c(N)c1[S+]([O-])C(F)(F)F (stereo not drawn) [Fipronil (.001%)],Average % Mortality after 30 min,[3]; [8],0%
same,Average % Mortality after 60 min,[3]; [8],0%
same,Average % Mortality after 2 hr,[3]; [8],0%
same,Average % Mortality after 3 hr,[3]; [8],25%
same,Average % Mortality after 24 hr,[3]; [8],100%
same,Average % Knockdown & Mortality after 60 min,[4]; [9],0%
same,Average % Knockdown & Mortality after 3 hr,[4]; [9],0%
same,Average % Knockdown & Mortality after 5 hr,[4]; [9],0%
same,Average % Knockdown & Mortality after 24 hr,[4]; [9],40%
CNC(=O)Oc1cccc2c1OC(C)(C)O2 [bendiocarb],% KD and Mortality 15′,[1]; [10],25%
same,% KD and Mortality 30′,[1]; [10],65%
same,% KD and Mortality 1 h,[1]; [10],85%
same,% KD and Mortality 2 h,[1]; [10],85%
same,% KD and Mortality 3 h,[1]; [10],85%
same,% KD and Mortality 4 h,[1]; [10],85%
same,% KD and Mortality 6 h,[1]; [10],85%
same,% KD and Mortality 24 h,[1]; [10],95%
same,% KD and Mortality 15′,[2]; [10],0%
same,% KD and Mortality 30′,[2]; [10],0%
same,% KD and Mortality 1 h,[2]; [10],0%
same,% KD and Mortality 2 h,[2]; [10],0%
same,% KD and Mortality 3 h,[2]; [10],0%
same,% KD and Mortality 4 h,[2]; [10],0%
same,% KD and Mortality 6 h,[2]; [10],0%
same,% KD and Mortality 24 h,[2]; [10],5%
same,% KD and Mortality 15′,[5]; [10],0%
same,% KD and Mortality 30′,[5]; [10],40%
same,% KD and Mortality 1 h,[5]; [10],60%
same,% KD and Mortality 2 h,[5]; [10],60%
same,% KD and Mortality 3 h,[5]; [10],80%
same,% KD and Mortality 4 h,[5]; [10],80%
same,% KD and Mortality 6 h,[5]; [10],80%
same,% KD and Mortality 24 h,[5]; [10],80%
same,% KD and Mortality,"[6]; 30′, on tiles, insecticide alone (imidacloprid 50 mg/m^2, Bendiocarb 50 mg/m^2, Ethiprole 10 mg/m^2, DTM 1 mg/m^2), no Compound A",100%
same,mortality at 50 mg/m2,[6]; 1 h,100%
same,mortality at 50 mg/m2,[6]; 2 h,100%
same,mortality at 50 mg/m2,[6]; 3 h,100%
same,mortality at 50 mg/m2,[6]; 4 h,100%
same,mortality at 50 mg/m2,[6]; 6 h,100%
same,mortality at 50 mg/m2,[6]; 24 h,100%
same,mortality at 50 mg/m2,[6],100%
N#Cc1nn(-c2c(Cl)cc(C(F)(F)F)cc2Cl)c(N)c1[S+]([O-])C(F)(F)F (stereo not drawn) [Fipronil (.01%)],Average % Mortality after 30 min,[3]; [8],0%
same,Average % Mortality after 60 min,[3]; [8],0%
same,Average % Mortality after 2 hr,[3]; [8],0%
same,Average % Mortality after 3 hr,[3]; [8],0%
same,Average % Mortality after 24 hr,[3]; [8],100%
same,Average % Knockdown & Mortality after 60 min,[4]; [9],0%
same,Average % Knockdown & Mortality after 3 hr,[4]; [9],7%
same,Average % Knockdown & Mortality after 5 hr,[4]; [9],7%
same,Average % Knockdown & Mortality after 24 hr,[4]; [9],100%
O=[N+]([O-])NC1=NCCN1Cc1ccc(Cl)nc1 [imidacloprid],% KD and Mortality 15′,[1]; [11],25%
same,% KD and Mortality 30′,[1]; [11],55%
same,% KD and Mortality 1 h,[1]; [11],40%
same,% KD and Mortality 2 h,[1]; [11],95%
same,% KD and Mortality 3 h,[1]; [11],95%
same,% KD and Mortality 4 h,[1]; [11],95%
same,% KD and Mortality 6 h,[1]; [11],95%
same,% KD and Mortality 24 h,[1]; [11],100%
same,% KD and Mortality 15′,[2]; [11],5%
same,% KD and Mortality 30′,[2]; [11],5%
same,% KD and Mortality 1 h,[2]; [11],5%
same,% KD and Mortality 2 h,[2]; [11],5%
same,% KD and Mortality 3 h,[2]; [11],5%
same,% KD and Mortality 4 h,[2]; [11],5%
same,% KD and Mortality 6 h,[2]; [11],5%
same,% KD and Mortality 24 h,[2]; [11],20%
same,% KD and Mortality 15′,[5]; [11],0%
same,% KD and Mortality 30′,[5]; [11],0%
same,% KD and Mortality 1 h,[5]; [11],20%
same,% KD and Mortality 2 h,[5]; [11],80%
same,% KD and Mortality 3 h,[5]; [11],100%
same,% KD and Mortality 4 h,[5]; [11],100%
same,% KD and Mortality 6 h,[5]; [11],100%
same,% KD and Mortality 24 h,[5]; [11],100%
same,mortality at 50 mg/m2,"[6]; 15′, on tiles, insecticide alone (imidacloprid 50 mg/m^2, Bendiocarb 50 mg/m^2, Ethiprole 10 mg/m^2, DTM 1 mg/m^2), no Compound A",100%
same,mortality at 50 mg/m2,"[6]; 1 h, on tiles, insecticide alone (imidacloprid 50 mg/m^2, Bendiocarb 50 mg/m^2, Ethiprole 10 mg/m^2, DTM 1 mg/m^2), no Compound A",100%
same,mortality at 50 mg/m2,"[6]; 2 h, on tiles, insecticide alone (imidacloprid 50 mg/m^2, Bendiocarb 50 mg/m^2, Ethiprole 10 mg/m^2, DTM 1 mg/m^2), no Compound A",100%
same,mortality at 50 mg/m2,"[6]; 3 h, on tiles, insecticide alone (imidacloprid 50 mg/m^2, Bendiocarb 50 mg/m^2, Ethiprole 10 mg/m^2, DTM 1 mg/m^2), no Compound A",100%
same,mortality at 50 mg/m2,"[6]; 4 h, on tiles, insecticide alone (imidacloprid 50 mg/m^2, Bendiocarb 50 mg/m^2, Ethiprole 10 mg/m^2, DTM 1 mg/m^2), no Compound A",100%
same,mortality at 50 mg/m2,"[6]; 6 h, on tiles, insecticide alone (imidacloprid 50 mg/m^2, Bendiocarb 50 mg/m^2, Ethiprole 10 mg/m^2, DTM 1 mg/m^2), no Compound A",100%
same,mortality at 50 mg/m2,"[6]; 24 h, on tiles, insecticide alone (imidacloprid 50 mg/m^2, Bendiocarb 50 mg/m^2, Ethiprole 10 mg/m^2, DTM 1 mg/m^2), no Compound A",100%
CC[S+]([O-])c1c(C#N)nn(-c2c(Cl)cc(C(F)(F)F)cc2Cl)c1N (stereo not drawn) [Ethiprole (1%)],Average % Mortality after 1 hr,"[3]; Table 60, Red Imported Fire ant, continuous exposure, 1 hr",0%
same,Average % Mortality after 1.5 hr,"[3]; Table 60, Red Imported Fire ant, continuous exposure, 1.5 hr",0%
same,Average % Mortality after 2 hr,[3]; [12],0%
same,Average % Mortality after 3 hr,[3]; [12],10%
same,Average % Mortality after 30 min,"[3]; Table 60, Red Imported Fire ant, continuous exposure, adjuvant = Compound A 1% + Compound B 0.5%",0%
same,Average % Knockdown & Mortality after 3 hr,[4]; [13],13%
same,Average % Knockdown & Mortality after 5 hr,[4]; [13],27%
same,Average % Knockdown & Mortality after 24 hr,[4]; [13],73%
same,Average % Knockdown & Mortality after 1 hr,"[4]; Table 61, German cockroach (Monheim), continuous exposure, adjuvant = Compound A 1% + Compound B 0.5%, 1 hr",0%
